# Legend:
# [1] = target: T1, FAK/Paxillin (Mus musculus, UniProt P34152+Q8VI36); experiment: FAK/Paxillin displacement by structurally related compounds (FootLocker series, confocal microscopy); assay type: cell-based
# T1 construct: expressed in transfected cells; host or cells: mouse fibroblasts stably expressing GFP-FAK
# Description: To determine whether compounds structurally related to Mb31 and Mb36 are likewise suitable to interfere with FAK localization at focal adhesions, mouse fibroblasts stably expressing GFP-FAK were treated for 30 min with 1, 10 or 20 µM of the following compounds: trans-3-hydroxy-β-nitrostyrene (THBN), trans-4-Chloro-β-nitrostyrene (T4CN), trans-β-nitrostyrene (TBN), 4-chlorocinnamic acid (4CA), and trans-3-(4-bromothiophen-2-yl)acrylic acid (T34BA) (Figures 16 and 17). The cells were analyzed by confocal microscopy for GFP-FAK localization. DMSO treatment served as a vehicle control. […] Additional substituents at the aromatic structures, such as halogen atoms or hydroxy groups may contribute to the reactivity of the compound, but are not essential. Based on these findings, the inventors have extended their structure activity-relationship studies and synthesized additional related compounds, which, similar to Mb31, displace FAK and paxillin at concentrations below 10µM (++), displace FAK and paxillin at concentrations above 10 µM (+), or lack FAK and paxillin displacing activity (-). All these substances were then also nicknamed in the FLocker terminology, resulting in FLocker1 - FLocker24 (Table 2). Table 2: Overview of FootLocker nomenclature, their chemical notation/structure and the activity towards FAK/Paxillin displacement
# [2] = system: MDA-MB-231 breast cancer cells; experiment: In vitro wound healing assay; assay type: cell-based, human; conditions: 3 µM, 25 h, serum-containing growth medium
# Description: Image J was used to automatically quantify FAK-containing focal adhesions due to local maxima of fluorescence intensity in the GFP-channel (5 to 70 pixel). The number of cells was automatically counted in the Hoechst channel. To test reproducibility of the system 40 control wells were quantified wherein four positions for each well were imaged. […] GFP-FAK mouse embryonic fibroblasts were seeded on fibronectin and incubated for 1 h with the indicated concentrations of the small compounds, respectively. […] GFP-FAK mouse embryonic fibroblasts were seeded on fibronectin and serum-starved overnight. The indicated concentrations of Mb31 were applied for 30 min. Cells were lysed and analyzed for paxillin and FAK protein level as well as FAK Tyr397 phosphorylation. […] The purified kinase domain of FAK was incubated with increasing amounts of Mb31 for 1 h at 30°C together with poly-Glu-Tyr as a FAK substrate. […] Serum-starved GFP-FAK mouse embryonic fibroblasts were stimulated with normal growth medium and incubated for 5 h with the indicated concentrations of the small molecule compounds, respectively. Cell viability was assessed by MTT assay. […] GFP-FAK MEFs were seeded on fibronectin and serum-starved overnight. Migration was stimulated by replacing the medium with normal growth medium. Migration of single cells was tracked for 8 h in 30 min intervals. Migration was recorded from cells that were cultured without serum (A), with serum (B) or with serum in the presence of 3 µM Mb31 (C). […] (A) GFP-FAK MEFs were seeded and serum-starved as in Figure 10. Cell migration was stimulated with normal growth medium and single cells were tracked for 5 h. (B) Mb31 was added and the same cells were tracked for additional 5 h. (C) Mean velocities of differently treated cells were plotted over time. […] NIH-v-Src fibroblasts were seeded on 2 µg/ml FN in DMEM/0.5%BSA and stimulated with 10 ng/ml EGF or kept unstimulated. […] Mouse embryonic fibroblasts (MEFs) were transfected with talin-mCherry and talin dynamics analyzed in focal adhesions using fluorescence recovery after photobleaching (FRAP). Cells were left untreated (A) or treated with 10 µM of Mb31 (B). In untreated cells, the mCherry intensity recovered, indicating replacement of bleached by non-bleached talin and therefore turnover of talin at focal adhesions. […] (C) Wound closure was microscopically analyzed and evaluated using ImageJ software.
# To determine if the migration of transformed cells can be blocked by FLocker1 and related compounds, human breast carcinoma cells (MDA-MB-231) were used in in vitro wound healing assays. […] The ability of the cells to migrate and close the wound space was monitored by microscopy and quantified (Figure 18B and C).
# [3] = system: NIH-v-Src fibroblasts; experiment: EGF-stimulated cell migration of transformed cells; assay type: cell-based; conditions: 10 ng/ml EGF, tracked 6 h before and 6 h after addition
# Description: Image J was used to automatically quantify FAK-containing focal adhesions due to local maxima of fluorescence intensity in the GFP-channel (5 to 70 pixel). The number of cells was automatically counted in the Hoechst channel. To test reproducibility of the system 40 control wells were quantified wherein four positions for each well were imaged. […] GFP-FAK mouse embryonic fibroblasts were seeded on fibronectin and incubated for 1 h with the indicated concentrations of the small compounds, respectively. […] GFP-FAK mouse embryonic fibroblasts were seeded on fibronectin and serum-starved overnight. The indicated concentrations of Mb31 were applied for 30 min. Cells were lysed and analyzed for paxillin and FAK protein level as well as FAK Tyr397 phosphorylation. […] The purified kinase domain of FAK was incubated with increasing amounts of Mb31 for 1 h at 30°C together with poly-Glu-Tyr as a FAK substrate. […] Serum-starved GFP-FAK mouse embryonic fibroblasts were stimulated with normal growth medium and incubated for 5 h with the indicated concentrations of the small molecule compounds, respectively. Cell viability was assessed by MTT assay. […] GFP-FAK MEFs were seeded on fibronectin and serum-starved overnight. Migration was stimulated by replacing the medium with normal growth medium. Migration of single cells was tracked for 8 h in 30 min intervals. Migration was recorded from cells that were cultured without serum (A), with serum (B) or with serum in the presence of 3 µM Mb31 (C). […] (A) GFP-FAK MEFs were seeded and serum-starved as in Figure 10. Cell migration was stimulated with normal growth medium and single cells were tracked for 5 h. […] Mouse embryonic fibroblasts (MEFs) were transfected with talin-mCherry and talin dynamics analyzed in focal adhesions using fluorescence recovery after photobleaching (FRAP). […] (C) Wound closure was microscopically analyzed and evaluated using ImageJ software.
# To further determine whether Mb31 interferes with cell motility, GFP-FAK MEFs were serum-stimulated and migration was quantified on a single cell basis (Figures 11 and 12). […]
# T1 sequence (P34152 whole entry): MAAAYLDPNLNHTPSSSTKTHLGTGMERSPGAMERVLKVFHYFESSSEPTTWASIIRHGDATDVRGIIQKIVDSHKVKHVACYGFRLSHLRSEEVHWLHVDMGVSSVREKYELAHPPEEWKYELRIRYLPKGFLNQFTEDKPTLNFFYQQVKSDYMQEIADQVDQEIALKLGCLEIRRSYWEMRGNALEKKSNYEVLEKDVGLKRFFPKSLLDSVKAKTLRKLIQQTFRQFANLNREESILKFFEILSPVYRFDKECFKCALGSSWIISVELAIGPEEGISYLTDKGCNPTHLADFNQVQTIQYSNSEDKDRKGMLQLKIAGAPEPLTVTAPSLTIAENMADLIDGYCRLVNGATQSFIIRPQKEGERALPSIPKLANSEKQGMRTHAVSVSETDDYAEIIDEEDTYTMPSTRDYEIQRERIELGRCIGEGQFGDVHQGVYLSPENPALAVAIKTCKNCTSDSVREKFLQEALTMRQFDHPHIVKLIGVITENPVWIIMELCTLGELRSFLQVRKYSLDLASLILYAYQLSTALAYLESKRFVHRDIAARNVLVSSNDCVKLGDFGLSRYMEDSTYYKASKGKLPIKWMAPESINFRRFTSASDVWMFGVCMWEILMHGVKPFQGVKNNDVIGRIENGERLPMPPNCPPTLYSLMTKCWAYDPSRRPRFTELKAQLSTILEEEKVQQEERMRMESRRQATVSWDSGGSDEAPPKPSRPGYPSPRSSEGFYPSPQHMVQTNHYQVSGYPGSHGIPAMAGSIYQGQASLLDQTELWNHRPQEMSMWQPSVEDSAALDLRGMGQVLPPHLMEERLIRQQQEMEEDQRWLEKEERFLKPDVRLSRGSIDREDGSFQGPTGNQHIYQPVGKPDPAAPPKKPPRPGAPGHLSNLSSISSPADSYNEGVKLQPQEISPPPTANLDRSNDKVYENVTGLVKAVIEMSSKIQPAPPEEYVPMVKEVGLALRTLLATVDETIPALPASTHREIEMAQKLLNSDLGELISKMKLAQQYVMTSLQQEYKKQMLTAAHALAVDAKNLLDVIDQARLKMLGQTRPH
# T1 sequence (Q8VI36 whole entry): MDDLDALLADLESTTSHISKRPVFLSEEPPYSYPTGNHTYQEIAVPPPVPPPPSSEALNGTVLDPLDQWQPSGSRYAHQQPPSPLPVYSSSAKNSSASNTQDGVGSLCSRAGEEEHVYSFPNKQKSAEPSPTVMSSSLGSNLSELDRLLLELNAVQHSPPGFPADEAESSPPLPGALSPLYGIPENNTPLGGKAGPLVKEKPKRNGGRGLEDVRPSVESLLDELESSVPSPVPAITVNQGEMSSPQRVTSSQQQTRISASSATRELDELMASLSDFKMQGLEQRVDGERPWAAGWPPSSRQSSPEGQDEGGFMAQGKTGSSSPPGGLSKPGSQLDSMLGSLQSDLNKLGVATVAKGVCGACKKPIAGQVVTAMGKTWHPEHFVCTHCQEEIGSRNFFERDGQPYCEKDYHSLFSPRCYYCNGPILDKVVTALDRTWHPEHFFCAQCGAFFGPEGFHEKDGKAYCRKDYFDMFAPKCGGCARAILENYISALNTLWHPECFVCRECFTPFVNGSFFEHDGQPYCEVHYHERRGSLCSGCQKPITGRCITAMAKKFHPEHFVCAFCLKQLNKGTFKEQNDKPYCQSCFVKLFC
"FAK displacing ability ([1]; GFP-FAK mouse fibroblasts, 30 min, 1, 10 or 20 µM)",Compound,compounds showing the most prominent effect on protein-protein interactions at focal adhesion site [1],disruption of protein-protein interactions at focal adhesion site [1],migration of cancer cells / wound closure [2],migration of EGF-stimulated cells [3]
,"O=[N+]([O-])/C=C/c1ccc(F)cc1 [FootLocker 14, (E)-1-fluoro-4-(2-nitrovinyl)benzene]",most prominent effect,efficiently disrupt protein-protein interactions at focal adhesion site,retarded the migration of the cancer cells,
without FAK displacing ability,"O=C(O)/C=C/c1cc(Br)cs1 [FootLocker 24, trans-3-(4-Bromothiophen-2-yl)acrylic acid, reference compound]",,,,no effect
,CN(c1ccccc1CNc1nc(Nc2ccc3c(c2)CC(=O)N3)ncc1C(F)(F)F)S(C)(=O)=O [PF431396],,,,efficiently inhibit the migration

# From patent EP2982368A1, “Small molecule compounds displacing focal adhesion core components” (Universität Konstanz, priority 2014, dated 2016)
